The subject of the assay is HL-1 cardiomyocytes. The settings on record: HL-1 cells, CCCP 50 μM, imaged right after exposure, versus vehicle control, n=4 cultures/group.

Experimental: Mouse HL-1 cardiomyocytes are maintained in Claycomb media (Sigma-Alrich). Images are taken right after exposure to low-dose CCCP (50 μM) or vehicle. We prepared 4 dishes for each group, and acquired a total of 16 fields per group (4 fields per dish).
TPEF Data Acquisition: For TPEF imaging, cell cultures are placed in home-made micro-incubator system, which maintained 37° C. and 5% CO2 within a humidified environment throughout the imaging session. […] Images are obtained using a custom-built microscope with a 40×water dipping objective (NA 1.1) or a 25×water dipping objective (NA 0.95, for in vivo imaging only) equipped with a tunable (710-920 nm) Ti: sapphire laser (Mai Tai; Spectra Physics; Mountain View, Calif.). Emission events are registered by a photomultiplier tube (PMT) detector attached to a commercial time-correlated single photon counting (TCSPC) electronics module. To isolate NADH fluorescence, a 460(±20) nm emission filter (Chroma, ET460/40M-2P), corresponding to the NADH emission peak, was placed before the detector. NADH fluorescence images are acquired from this 460 nm detector using 755 nm excitation. FAD fluorescence was isolated using 525(±25) nm emission filter (Chroma, ET525/50M-2P) and 860 nm excitation. […] The laser power and PMT gain are recorded for each image and used to normalize fluorescence intensity.
Optical Redox Ratio Calculation: To process the optical redox ratio, firstly the fluorescence intensity of either NADH or FAD at each pixel was taken as the total photon counts detected during the integration time without spatial binning. For cell cultures, the cytoplasm of cells was selected based on the intensity threshold (FIG. 2F), while the segmentation of cell cytoplasm and lipid areas for BAT tissues was extracted by a combination of fluorescence intensity and lifetime information (FIGS. 71-7F). Pixel-wise redox ratio maps are created by normalized fluorescence intensities as: FAD/(FAD+NADH). […]

With “carbonyl cyanide m-chlorophenyl hydrazine [CCCP]”, the “bound NADH fraction (NADH fluorescence lifetime, phasor analysis)” value is reported as “increase”; the “mitochondrial clustering (β from PSD)” value is given as “increased”; the “optical redox ratio FAD/(NADH+FAD)” value was “elevated”.

The values are drawn from patent publication US12345644B2, “System and method for assessing cellular metabolic activity” (Trustees of Tufts College, priority 2016, dated 2025).
